This note sets out measurements from a melting point compilation (Tetko et al.; mined from patent text by program, amines drawn as free bases though some values may be those of a salt).

A value given as a limit tells only on which side of the number the result lay.

Broadly, the melting point is the temperature, or range, at which the solid turns liquid. `Cc1nn(C)c(O)c1C(=O)c1ccc(Cl)cc1[N+](=O)[O-]` came in with a melting point of 223 to 224 °C.

Take `COC(=O)c1cc2cc(C=O)c3ccccc3c2s1`: the melting point worked out at 208 °C.

`CCCCOC(=O)CN(Cc1ccccc1OC)S(=O)(=O)c1ccc2c(Cl)cnc(Cl)c2c1`: the melting point lay in the range of 106 to 108 °C.

`FC(F)=C(F)CCSc1nnc(-c2ccc(Cl)cc2)s1` gave a melting point of 68 to 69 °C.

In turn, `OC(c1ccc(Cl)cc1)(c1ccc(Cl)cc1)c1cn[nH]c1` returned a melting point of 135 to 137 °C.

The molecule `COc1ccc(-n2nc3c(-c4ccccc4)c(C)[nH]cc-3c2=O)cc1` had a melting point of 300 to 310 °C.

`COc1cc(Cc2cnc(CCCOc3cccc(CN4CCCCC4)c3)[nH]c2=O)ccn1` gave a melting point of 93 to 94 °C.

`CC(=O)NC(CCCCN)C(=O)C(N)C(CC1(C(=O)NC2CCC(C(=O)O)CC2)CCCC1)C(=O)O` (configuration not stated) yielded a melting point of 161 to 163 °C.

Turning to `CCOC(=O)N[C@@H]1CCc2c(ccc(OCc3ccccc3)c2N(C)Cc2ccccc2)[C@H]1O` (relative stereo), the melting point lay within 119 to 120 °C.

For `CCCCN1CCn2c1nc(C(=O)NCc1ccc(F)cc1-n1cnc(C)n1)c(O)c2=O`, the melting point came out at 214 °C.

For `Cc1ccc2c(=O)nc(-c3cc(S(C)(=O)=O)cc(CCC(=O)OC(C)(C)C)n3)sc2c1`, the melting point is 178 °C.

`CCC(CC)COc1cccc2nc(C)c(C(=O)O)c(N)c12`: the melting point lay in the range of 145 to 151 °C.

For the molecule `CCNC(=O)C1=C([Si](C)(C)C)S(=O)(=O)c2ccccc21`, the melting point fell in the range of 135 to 148 °C.

The molecule `CNc1ccc(C=Cc2ccc(N)cc2)cc1` registered a melting point of 144 to 145 °C.

On to `O=C(NC/C=C\COc1cc(CN2CCCC2)ccn1)c1cn[nH]c1`, for which the melting point was in the range of 57 to 61 °C.

The molecule `CC1=C(C(=O)OC(C)(C)C)C(c2ccccc2Br)C(C(=O)OC(C)(C)C)=C(C)N1` showed a melting point of 162 to 164 °C.

`COC(=O)Cc1ccsc1-c1ccccc1`: the melting point is 29 to 31 °C.

For the molecule `Cc1noc(NS(=O)(=O)c2ccccc2-c2ccc(-c3ncco3)cc2CN2OCC(C)(C)C2=O)c1C`, the melting point was in the range of 95 to 100 °C.

`CN1C(c2cccc(F)c2)c2ccccc2S1(=O)=O` (single isomer, unassigned; (+)) gave a melting point of 147 °C.

In turn, `CCc1cc2c(s1)-n1c(C)nnc1C(CCC(=O)Nc1ccccc1)N=C2c1ccc(Cl)cc1` (configuration not stated) registered a melting point of 183 to 185 °C.

With `COC(=O)c1ccc(Cn2cnc3ccccc32)cc1`, the melting point fell in the range of 94 to 95 °C.

For `CSc1ccc(-c2ccc(C(=O)Nc3cc4ncc(CN5CCCC5)cc4cc3C)cc2)cc1`, the melting point was determined as 198 °C.

For the molecule `CC(=O)Nc1ccc(F)cc1OCc1ccccc1`, the melting point fell in the range of 136 to 138 °C.

As for `CCCCC[C@H]1CC[C@H](c2ccc(-c3ccc(CO)cc3)cc2)CC1`, the melting point was found to be 180 °C.

As for `CCC(Oc1cccc(C(F)(F)F)n1)C(=O)O` (configuration not stated), the melting point came to 91 °C.

`CCOc1c(C(F)(F)F)cc([N+](=O)[O-])c2nc(C(F)(F)F)[nH]c12` gave a melting point of 144 to 146 °C.

Molecule `COc1cccc(C(=O)C=Cc2ccc(OC)cc2OC)c1` had a melting point of 75.6 to 78.9 °C.

For `COC(=O)CN(CC(=O)OC)c1cc(OCCCCCCCCCCCCOc2ccccc2)cc(OCCCOc2ccc(S(C)=O)cc2)c1` (configuration not stated), the melting point is 47 to 49 °C.

`Cc1nc(Br)n(COCc2ccccc2)c1Sc1ccccc1` returned a melting point of 55 °C.

`CC=C(c1ccc(N(C)C)cc1)c1ccc(N(C)C)cc1`: the melting point was 99 to 101 °C.

As for `COC(=O)c1cc2ccoc2s1`, the melting point was 86 to 88 °C.

Regarding `CN(CC(=O)c1ccc(Br)cc1)C(=O)OC(C)(C)C`, the melting point is 87 to 90 °C.

Take `O=c1[nH]c2ccsc2c(=O)n1CCN1CCN(c2ccccc2Cl)CC1`: the melting point fell in the range of 193 to 196 °C.

In turn, `O=C(O)c1ccc2c(c1)S(=O)c1ccccc1CC2` (configuration not stated) displayed a melting point of 261 to 265 °C.

`CCCCOCCOc1ccc(-c2ccc3c(c2)C=C(C(=O)Nc2ccc4c(c2)nc(S(=O)Cc2cncn2CCC)n4C)CCN3CC(C)C)cc1` (configuration not stated) came in with a melting point of 150 to 151 °C.

For the molecule `Cc1ccc2c(c1)c(=O)c1c(cnn1C)n2CC(N)=O`, the melting point was in the range of 247 to 252 °C.

`CCOC(=O)c1nnc2ccc(NC(C)C)cc2c1O` displayed a melting point of 170 to 171 °C.

In turn, `O=C(O)CCC(=O)c1ccc(-n2cnc3c2CCCC3)cc1` displayed a melting point of 234 to 235 °C.

`CCOP(=O)(CSCCOn1cnc2c(N)ncnc21)OCC` displayed a melting point of 93 to 95 °C.

`CCN1C(=O)N(c2cc(OC)cc(OC)c2F)Cc2cnc(NC3CCC(O)CC3)nc21` (configuration not stated) had a melting point of 198 to 204 °C.

`O=[N+]([O-])c1ccc(Cl)cc1NCC1CCCCC1` came in with a melting point of 73 °C.

The molecule `CCOC(=O)c1[nH]c(CC2CCC2)nc1C(F)(F)F` gave a melting point of 136 to 138 °C.

Consider `CC(C)CC(C(=O)O)c1cc(Cl)c(-c2ccc(Cl)cc2)c(OCC2CC2)c1` (configuration not stated), for which the melting point was in the range of 52 to 53 °C.

The molecule `COc1ccc(C2CNCc3c(OC)cccc32)cc1OC` (configuration not stated) yielded a melting point of 106 to 112 °C.

`CC(C)Oc1c(F)cc2c(O)c(C(=O)NCc3ccc(Cl)cc3)cnc2c1F` yielded a melting point of 207 to 209 °C.

`CC(C)(C)OC(=O)NC(COCCCN)(COCCCN)COCCCN` gave a melting point of 96 to 98 °C.

Molecule `Nc1cc(-c2nnc(CCc3cccc(F)c3)o2)ccn1` came in with a melting point of 165 to 166 °C.

With `CC12CCC(O)CC1=CCC1C2CCC2(C)C(c3ccsc3)=CCC12` (configuration not stated), the melting point fell in the range of 215 to 219 °C.

For `CC(=NOCC(=O)O)c1ccc(NS(C)(=O)=O)c(Oc2ccc(F)cc2F)c1`, the melting point lay within 174 to 175 °C.

For the molecule `CCOC(=O)c1c(Cn2cnnc2)nc2sc(C)c(C)c2c1-c1ccc(OC)c(OC)c1`, the melting point was 187 to 188 °C.

For `O=C(O)c1ccc(C(=C2SCCCS2)c2ccccc2)cc1`, the melting point is 261 to 262 °C.

For `N#Cc1c(N2CCNCC2)c2cc(F)ccc2n(Cc2ccccc2)c1=O`, the melting point stood at 162 °C.

As for `CC(C)(CO)NC(=O)c1nn(-c2ccc(Cl)cc2)c2c1C1CCC2C1` (configuration not stated), the melting point fell in the range of 167 to 169 °C.

The molecule `CCC(=O)c1c(CC)n(Cc2ccccc2Cl)c2cc(C#N)ccc12` showed a melting point of 115 to 118 °C.

For the molecule `C1=Cc2ccccc2SS1`, the melting point is 82 to 83 °C.

`O=c1[nH]c2ncc(-c3ccc(O)cc3)nc2n1CC1CCCN1` (configuration not stated) displayed a melting point of 178 to 180 °C.

In the case of `CS(=O)(=O)c1ccc(-c2cnc3cnc(-c4ccc(O)cc4)nc3c2)cc1`, the melting point lay within 306 to 307 °C.

With `Nc1ccc(OC2CCN(c3ccncc3)CC2)cc1`, the melting point lay in the range of 209 to 210 °C.

The molecule `C=C(CCC(C)C1CCC2C3=C(C(=O)CC21C)C1(C)CCC(=O)C(C)C1CC3)C(C)C(=O)OC` (configuration not stated) registered a melting point of 100 to 102 °C.

`CCOC(=O)C1=C(C)NC(=O)N(C(=O)OCC)C1c1ccccc1[N+](=O)[O-]` (configuration not stated) returned a melting point of 150 to 152 °C.

In turn, `CCCC(CNc1nc(C)c(OC)c(C)n1)c1ccccc1` (configuration not stated) came in with a melting point of 31 to 33 °C.

`CN(C)C=C1CN=C(c2ccccc2Cl)c2ccccc2C1=O` gave a melting point of 155 to 157 °C.

The molecule `CS(=O)(=O)c1c(C(=O)NN=Cc2nccs2)[nH]c2ccccc12` gave a melting point of more than 280 °C.

`CN1CCN(C2c3ccccc3C=Cc3ccc(Br)cc32)CC1` (configuration not stated) came in with a melting point of 128 to 130 °C.

On to `COC(=O)C(C(=O)c1ccc(Cn2ccc3ccc(NC(=O)CC4CCCC4)cc32)c(OC)c1)S(=O)(=O)c1ccccc1` (configuration not stated), for which the melting point was 93 to 98 °C.

In the case of `CCc1oc2ccc(Cl)cc2c1C(=O)c1cc(Br)c(O)c(Br)c1`, the melting point fell in the range of 126 to 128 °C.

`O=C(O)CCCC/C=C(\c1ccc(C2=N[C@H](C(=O)NCCCCC3CCCCC3)CO2)cc1)c1cccnc1` came in with a melting point of 61 °C.

For `COC(=O)c1c(-c2ccc(F)cc2)nc(N)nc1C(C)C`, the melting point is 146 to 147 °C.

With `Cn1cc(C(=O)O)c(=O)c2c3cc(N4CCC(O)(c5cccc(C(F)(F)F)c5)CC4)c(F)cc3ncc21`, the melting point came to 300 °C.

Take `CCOC(=O)C1=C(N)N=C(N)C(C)(C(=O)OCC)C1c1cccc([N+](=O)[O-])c1` (configuration not stated): the melting point came to 142 °C.

On to `CC1C(=O)c2cc(NS(C)(=O)=O)ccc2OC12CCN(CCc1ccccn1)CC2` (configuration not stated), for which the melting point fell in the range of 210 to 211 °C.

Consider `CCOC(=O)Cc1csc(NC(=O)c2ccc(F)cc2)n1`, for which the melting point fell in the range of 110 to 112 °C.

`O=C(c1ccccc1Nc1ccc(O)cc1)N1CCCCC1`: the melting point was in the range of 199 to 201 °C.

`COC(=O)c1cc(OC)cc2cc(-c3ccc(OC)c(F)c3)oc12` showed a melting point of 121 to 123 °C.

For the molecule `COc1ccc(C(=O)Nc2ccccc2)cc1NCc1ccccc1F`, the melting point lay within 142 to 144 °C.

Turning to `Nc1nc(Cl)nc(NC2CC2)n1`, the melting point lay within 188 to 189 °C.

The molecule `O=CC=C(c1ccccc1)c1ccccc1` returned a melting point of 45 to 46.5 °C.

Consider `CS(=O)(=O)Nc1ccc(C=C2c3ccccc3CCc3ccccc32)cc1`, for which the melting point is 211 °C.

The molecule `O=Cc1ccc(OCCN2CCN(c3cc(Cl)nnc3Cl)CC2)cc1` showed a melting point of 110 to 112 °C.

In the case of `COc1cc2c(=O)n3nc(C(=O)O)cc3n(C)c2cc1OC`, the melting point was in the range of 284 to 285 °C.

Consider `Cc1ccc2nc(-c3cccnc3N)n(-c3ccc(CC(=O)c4ccccc4)cc3)c2n1`, for which the melting point fell in the range of 194 to 196 °C.

In turn, `CCN(CC)C(=O)Cn1c(=N)sc2cc(OC(F)(F)F)ccc21` registered a melting point of 223 °C.

With `CC(C)c1cc(-c2ccc(F)c3ccccc23)nc(Nc2ccccc2)n1`, the melting point fell in the range of 85.7 to 86.3 °C.

As for `O=[N+]([O-])c1ccc(CS(=O)(=O)NCCc2ccccc2)cc1`, the melting point was 101 to 103 °C.

With `O=C(Nc1ccc(OCCN2CCOCC2)c2ccccc12)c1cc(F)cc(OC2CCCC2)c1`, the melting point fell in the range of 117 to 119 °C.

`N#CN=C(Nc1cccnc1)NC(NC(=O)c1ccc(Cl)cc1)C1CCCCC1` (configuration not stated) displayed a melting point of 190 to 192 °C.

Molecule `O=C(Cl)[C@@H]1CCC(=O)N1C(=O)OCc1ccccc1` yielded a melting point of 65 to 70 °C.
